Test results taken from BigSolDB 2.1.

N#Cc1ccc(C(c2ccc(C#N)cc2)n2cncn2)cc1
solubility (mole fraction)
Details | 283.15 K | 288.15 K | 293.15 K | 298.15 K | 303.15 K | 308.15 K | 313.15 K | 318.15 K | 323.15 K
in THF | 0.0164 | 0.0184 | 0.0206 | 0.0229 | 0.0254 | 0.0281 | 0.0309 | 0.034 | 0.0373
in acetone | 0.0147 | 0.0168 | 0.019 | 0.0214 | 0.0241 | 0.027 | 0.0301 | 0.0335 | 0.0371
in acetonitrile | 0.00638 | 0.0077 | 0.00923 | 0.011 | 0.0131 | 0.0154 | 0.018 | 0.021 | 0.0244
in ethanol | 0.000456 | 0.000586 | 0.000748 | 0.000946 | 0.00119 | 0.00148 | 0.00183 | 0.00225 | 0.00275
in ethyl acetate | 0.00527 | 0.00609 | 0.007 | 0.00802 | 0.00914 | 0.0104 | 0.0117 | 0.0132 | 0.0148
in methanol | 0.00108 | 0.00133 | 0.00163 | 0.00198 | 0.00239 | 0.00287 | 0.00342 | 0.00406 | 0.00479
in methyl acetate | 0.0105 | 0.0119 | 0.0135 | 0.0151 | 0.017 | 0.019 | 0.0211 | 0.0234 | 0.0259
in n-propanol | 0.000351 | 0.000461 | 0.0006 | 0.000773 | 0.000989 | 0.00125 | 0.00158 | 0.00197 | 0.00245
